Reference: patent publication US11491245B2, “Gadolinium chelate compounds for use in magnetic resonance imaging” (BAYER PHARMA AKTIENGESELLSCHAFT, priority 2015, dated 2022)
Read-outs that look alike come from different tables or passages of the source.

Legend:
[1] = Relaxivity measurements at 1.41 T; type: physicochemical; settings: 1.41 T, 37° C., normalized to Gd; for r1 FBS: fetal bovine serum
Description: Relaxivity measurements at 1.41 T were performed using a MiniSpec mq60 spectrometer (Bruker Analytik, Karlsruhe, Germany) operating at a resonance frequency of 60 MHz and a temperature of 37° C. The T1 relaxation times were determined using the standard inversion recovery (IR) method with a fixed relaxation delay of at least 5×T1. The variable inversion time (TI) was calculated automatically by the standard software of the MiniSpec mq60 (8 steps). The T2 measurements were done by using a Carr-Purcell-Meiboom-Gill (CPMG) pulse sequence, applying a relaxation delay of at least 5×T1.
Each relaxivity measurement was performed using three different Gd concentrations (3 concentrations between 0.05 and 2 mM). The T1 and T2 relaxation times of the example compounds 1-10 were measured in different media for example in water, fetal bovine serum (FBS, Sigma, F7524) and human plasma.
(§1) Human plasma preparation: For each experiment fresh blood was taken from a volunteer using 10 mL citrate-tubes (Sarstedt S-Monovette 02.1067.001, 10 mL, Citrate). The 10 mL citrate-tubes were carefully inverted 10 times to mix blood and anticoagulant and centrifuged for 15 minutes at 1811 g at room temperature (Eppendorf, Centrifuge 5810R).
The relaxivities ri (where i=1, 2) were calculated on the basis of the measured relaxation rates Ri in water and plasma: Ri=Ri(0)+ri[CGd], where Ri(0) represent the relaxation rate of the respective solvent and CGd the concentration of the compound normalized to the Gadolinium. The Gadolinium concentrations of the investigated solutions were verified by Inductively Coupled Plasma Mass Spectroscopy (ICP-MS Agilent 7500a, Waldbronn, Germany).

[2] = Relaxivity measurements at 3.0 T; type: physicochemical; settings: 37° C., normalized to Gd, average ± standard deviation
Description: Relaxivity measurements at 3.0 T were performed with a whole body 3.0 T MRI Scanner (Philips Intera, Philips Healthcare, Hamburg, Germany) using a knee-coil (SENSE-Knee-8, Philips Healthcare, Hamburg, Germany). The sample tubes (CryoTubetm Vials, Thermo Scientific 1.8 mL, Roskilde, Denmark) were positioned in 3 rows of 4 and 5 tubes in a plastic holder in a box filled with water. The temperature was adjusted to 37° C. For the MRI sequence, the shortest possible echo-time (TE) with 7.46 milliseconds was used. The inversion times were chosen to optimize the sequence to measure T1 values corresponding to the estimated T1 range of all relaxation times of contrast media containing solutions. The following inversion times (TIs) were applied: 50, 100, 150, 200, 300, 500, 700, 1000, 1400, 2100, 3200, and 4500 milliseconds. The sequence was run with a constant relaxation delay of 3.4 seconds after the registration of the last echo (variable TR in the range from 3450 to 7900 milliseconds). For details of the fit procedure, see Rohrer et. al. (Invest. Radiol. 2005; 40, 11: 715-724). The experimental matrix of the phantom measurement was 320×320.
The relaxivities were evaluated using three different concentrations of each compound (3 concentrations between 0.05 and 2 mM).
as §1, with “The T1 relaxation times of the Example compounds 1-6 were measured in water and human plasma. Human” for “Human”
The relaxivities ri (where i=1, 2) were calculated on the basis of the measured relaxation rates Ri in water and plasma: Ri=Ri(0)+ri[CGd], where Ri(0) represent the relaxation rate of the respective solvent and CGd the concentration of the compound normalized to the Gadolinium (Table 2).

Water solubility = type: physicochemical; settings: 10 mM Tris-HCl buffer, 20° C.
Description: The water solubility of the compounds was determined at room temperature (20° C.) in 0.5 mL buffer solution (10 mM Tris-HCl) in the microcentrifuge tubes (Eppendorf, 2.0 mL safe-lock caps). The solid compound was added stepwise to the buffer solution. The suspension was mixed using a shaker (Heidolph Reax 2000) and treated 5 min in an ultrasound bath (Bandelin, Sonorex Super RK255H) The suspension was stored at room temperature (20° C.) over night and final Gadolinium concentration was determined by inductively coupled plasma mass spectrometry (ICP-MS).

[3] = 37° C., cited from earlier work; for r1 FBS: bovine plasma
[4] = reference compounds (marked ^), 3.0 T, average ± standard deviation
[5] = reference compounds, 1.5 T, from Rohrer et al.

Row | Compound | r1 human plasma [1] [L/mmol/s] | r1 water [1] [L/mmol/s] | r1 human plasma [2] [L/mmol/s] | r1 water [2] [L/mmol/s] | r1 FBS [1] [L/mmol/s] | Solubility (Water solubility) [mmol Gd/L] | r1 human plasma [3, 4] [L/mmol/s] | r1 water [3, 4] [L/mmol/s] | r1 FBS [3, 5] [L/mmol/s] | r1 water [3, 5] [L/mmol/s]
1 | C[C@H](C(=O)NCC(=O)NCC(CNC(=O)CNC(=O)[C@@H](C)N1CCN(CC(=O)[O-])CCN(CC(=O)[O-])CCN(CC(=O)[O-])CC1)(CNC(=O)CNC(=O)[C@@H](C)N1CCN(CC(=O)[O-])CCN(CC(=O)[O-])CCN(CC(=O)[O-])CC1)CNC(=O)CNC(=O)[C@@H](C)N1CCN(CC(=O)[O-])CCN(CC(=O)[O-])CCN(CC(=O)[O-])CC1)N1CCN(CC(=O)[O-])CCN(CC(=O)[O-])CCN(CC(=O)[O-])CC1.[Gd+3].[Gd+3].[Gd+3].[Gd+3] [Example 3-1, Tetragadolinium {4,10-bis(carboxylatomethyl)-7-[(2R,16R)-3,6,12,15-tetraoxo-16-[4,7,10-tris(carboxylatomethyl)-1,4,7,10-tetraazacyclododecan-1-yl]-9,9-bis({[({(2R)-2-[4,7,10-tris(carboxylatomethyl)-1,4,7,10-tetraazacyclododecan-1-yl]propanoyl}amino)-acetyl]amino}methyl)-4,7,11,14-tetraazaheptadecan-2-yl]-1,4,7,10-tetraazacyclo-dodecan-1-yl}acetate] | 10.4 | 9.5 | 10.1 ± 0.1 | 8.9 ± 0.2 | – | – | – | – | – | –
2 | C[C@@H](C(=O)NCC(=O)NCC(CNC(=O)CNC(=O)[C@H](C)N1CCN(CC(=O)[O-])CCN(CC(=O)[O-])CCN(CC(=O)[O-])CC1)(CNC(=O)CNC(=O)[C@H](C)N1CCN(CC(=O)[O-])CCN(CC(=O)[O-])CCN(CC(=O)[O-])CC1)CNC(=O)CNC(=O)[C@H](C)N1CCN(CC(=O)[O-])CCN(CC(=O)[O-])CCN(CC(=O)[O-])CC1)N1CCN(CC(=O)[O-])CCN(CC(=O)[O-])CCN(CC(=O)[O-])CC1.[Gd+3].[Gd+3].[Gd+3].[Gd+3] [Example 3-2, Tetragadolinium {4,10-bis(carboxylatomethyl)-7-[(2S,16S)-3,6,12,15-tetraoxo-16-[4,7,10-tris(carboxylatomethyl)-1,4,7,10-tetraazacyclododecan-1-yl]-9,9-bis({[({(2S)-2-[4,7,10-tris(carboxylatomethyl)-1,4,7,10-tetraazacyclododecan-1-yl]propanoyl}amino)acetyl]-amino}methyl)-4,7,11,14-tetraazaheptadecan-2-yl]-1,4,7,10-tetraazacyclododecan-1-yl}-acetate] | 11.4 | 9.4 | 11.4 ± 0.2 | 9.0 ± 0.4 | – | – | – | – | – | –
3 | CC(C(=O)NCC(=O)N1CCN(C(=O)CNC(=O)C(C)N2CCN(CC(=O)[O-])CCN(CC(=O)[O-])CCN(CC(=O)[O-])CC2)CCN(C(=O)CNC(=O)C(C)N2CCN(CC(=O)[O-])CCN(CC(=O)[O-])CCN(CC(=O)[O-])CC2)CCN(C(=O)CNC(=O)C(C)N2CCN(CC(=O)[O-])CCN(CC(=O)[O-])CCN(CC(=O)[O-])CC2)CC1)N1CCN(CC(=O)[O-])CCN(CC(=O)[O-])CCN(CC(=O)[O-])CC1.[Gd+3].[Gd+3].[Gd+3].[Gd+3] (centres unmarked) [Example 7, Tetragadolinium 2,2′,2″,2′″,2″″,2′″″,2″″″,2′″″″,2″″″″,2′″″″″,2″″″″″,2′″″″″″-{1,4,7,10-tetra-azacyclododecane-1,4,7,10-tetrayltetrakis[(2-oxoethane-2,1-diyl)imino(1-oxopropane-1,2-diyl)-1,4,7,10-tetraazacyclododecane-10,1,4,7-tetrayl]}dodecaacetate] | 12.1 | 10.8 | – | – | 11.7 | >1400 | – | – | – | –
4 | O=C([O-])CN1CCN(CC(=O)[O-])CCN(CC(=O)NCC(CNC(=O)CN2CCN(CC(=O)[O-])CCN(CC(=O)[O-])CCN(CC(=O)[O-])CC2)(CNC(=O)CN2CCN(CC(=O)[O-])CCN(CC(=O)[O-])CCN(CC(=O)[O-])CC2)CNC(=O)CN2CCN(CC(=O)[O-])CCN(CC(=O)[O-])CCN(CC(=O)[O-])CC2)CCN(CC(=O)[O-])CC1.[Gd+3].[Gd+3].[Gd+3].[Gd+3] [Example 10, Tetragadolinium {4,10-bis(carboxylatomethyl)-7-[2-oxo-2-({3-({[4,7,10-tris(carboxylato-methyl)-1,4,7,10-tetraazacyclododecan-1-yl]acetyl}amino)-2,2-bis[({[4,7,10-tris-(carboxylatomethyl)-1,4,7,10-tetraazacyclododecan-1-yl]acetyl}amino)methyl]propyl}-amino)ethyl]-1,4,7,10-tetraazacyclododecan-1-yl}acetate] | 9.7 | 7.3 | – | – | 9.2 | >800 | – | – | – | –
5 | CNC[C@H](O)[C@@H](O)[C@H](O)[C@H](O)CO.CNC[C@H](O)[C@@H](O)[C@H](O)[C@H](O)CO.O=C([O-])CN(CCN(CC(=O)[O-])CC(=O)O)CCN(CC(=O)[O-])CC(=O)O.[Gd+3] [Reference compound 2, gadopentetate dimeglumine] | – | – | – | – | – | – | 3.7 ± 0.2 | 3.1 ± 0.3 | 4.1 | 3.3
6 | CCOc1ccc(CC(CN(CCN(CC(=O)[O-])CC(=O)[O-])CC(=O)[O-])N(CC(=O)[O-])CC(=O)[O-])cc1.[Gd+3].[Na+].[Na+] (centres unmarked) [Reference compound 3, gadoxetate disodium] | – | – | – | – | – | – | 6.2 ± 0.3 | 4.3 ± 0.3 | 6.9 | 4.7
7 | Gadomer-17 [Reference compound 4] | – | – | – | – | – | – | 13 ± 1 | 13.0 ± 0.7 | 16 | 17.3
8 | Hexagadolinium 2,2′,2″,2′″,2″″,2′″″,2″″″,2′″″″,2″″″″,2′″″″″,2″″″″″,2′″″″″″,2″″″″″″, 2′″″″″″″,2″″″″″″″, 2′″″″″″″″,2″″″″″″″″,2′″″″″″″″″-{3,7,10-triazatricyclo[3.3.3.0^1,5]undecane-3,7,10-triyltris[carbonyl(3,6,11,14-tetraoxo-4,7,10,13-tetraazahexadecane-8,2,15-triyl)di-1,4,7,10-tetraazacyclododecane-10,1,4,7-tetrayl]}octadecaacetate [Example 8] | 14.6 | 12.5 | – | – | 14.5 | >1000 | – | – | – | –
9 | Tetragadolinium 2,2′,2″,2′″,2″″,2′″″,2″″″,2′″″″,2″″″″,2′″″″″,2″″″″″,2′″″″″″-(3,7,9-triazabicyclo[3.3.1]nonane-3,7-diylbis{carbonyl-1,4-diazepane-6,1,4-triylbis[(2-oxoethane-2,1-diyl)-1,4,7,10-tetraazacyclododecane-10,1,4,7-tetrayl]})dodecaacetate [Example 9] | – | 7.4 | – | – | 8.8 | >800 | – | – | – | –
